Experimental data from PubChem BioAssay (NCI).
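At the GI50, growth is halved. TGI marks complete inhibition of growth.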

Assays:
Experiment in all cases: DTP human tumour cell line panel, 384-well format
786-0 renal = tested on: 786-0 renal
COLO 205 colon = tested on: COLO 205 colon
OVCAR-3 ovarian = tested on: OVCAR-3 ovarian
T-47D breast = tested on: T-47D breast
MDA-MB-231 breast = tested on: MDA-MB-231 breast
IGROV1 ovarian = tested on: IGROV1 ovarian
A549 NSCLC = tested on: A549 NSCLC
OVCAR-5 ovarian = tested on: OVCAR-5 ovarian
HS 578T breast = tested on: HS 578T breast
SNB-75 CNS = tested on: SNB-75 CNS
U251 glioblastoma = tested on: U251 glioblastoma
OVCAR-4 ovarian = tested on: OVCAR-4 ovarian
SR leukemia = tested on: SR leukemia
NCI-H522 lung = tested on: NCI-H522 lung
NCI/ADR-RES ovarian = tested on: NCI/ADR-RES ovarian
HCT-15 colon = tested on: HCT-15 colon
SF-539 CNS = tested on: SF-539 CNS
M14 melanoma = tested on: M14 melanoma
KM12 colon = tested on: KM12 colon
NCI-H23 lung = tested on: NCI-H23 lung
HT29 colon = tested on: HT29 colon
SNB-19 CNS = tested on: SNB-19 CNS
NCI-H226 lung = tested on: NCI-H226 lung
HL-60(TB) leukemia = tested on: HL-60(TB) leukemia
CAKI-1 renal = tested on: CAKI-1 renal
UO-31 renal = tested on: UO-31 renal
RXF 393 renal = tested on: RXF 393 renal
PC-3 prostate = tested on: PC-3 prostate
MDA-MB-468 breast = tested on: MDA-MB-468 breast
NCI-H322M lung = tested on: NCI-H322M lung
MCF7 breast = tested on: MCF7 breast
MDA-MB-435 melanoma = tested on: MDA-MB-435 melanoma
NCI-H460 NSCLC = tested on: NCI-H460 NSCLC
MALME-3M melanoma = tested on: MALME-3M melanoma
HOP-92 NSCLC = tested on: HOP-92 NSCLC
MOLT-4 leukemia = tested on: MOLT-4 leukemia
SF-295 CNS = tested on: SF-295 CNS
HOP-62 NSCLC = tested on: HOP-62 NSCLC
RPMI-8226 leukemia = tested on: RPMI-8226 leukemia
BT-549 breast = tested on: BT-549 breast
A498 renal = tested on: A498 renal
DU-145 prostate = tested on: DU-145 prostate
ACHN renal = tested on: ACHN renal
HCT-116 colon = tested on: HCT-116 colon
UACC-62 melanoma = tested on: UACC-62 melanoma
SK-MEL-5 melanoma = tested on: SK-MEL-5 melanoma
EKVX NSCLC = tested on: EKVX NSCLC
SN12C renal = tested on: SN12C renal
SK-MEL-28 melanoma = tested on: SK-MEL-28 melanoma
LOX IMVI melanoma = tested on: LOX IMVI melanoma
OVCAR-8 ovarian = tested on: OVCAR-8 ovarian
SK-OV-3 ovarian = tested on: SK-OV-3 ovarian
HCC-2998 colon = tested on: HCC-2998 colon

**Q.** What does the source list for Cc1c(C(=O)Nc2ccc(N3C[C@@H](C)O[C@@H](C)C3)nc2)cccc1-c1ccc(OC(F)(F)F)cc1?
**A.** GI50 (786-0 renal): 6.53 µM; TGI (786-0 renal): 17.5 µM; GI50 (COLO 205 colon): 3.35 µM; TGI (COLO 205 colon): 4.86 µM; GI50 (OVCAR-3 ovarian): 10.6 µM; TGI (OVCAR-3 ovarian): 15.3 µM; GI50 (T-47D breast): 1.47 µM; TGI (T-47D breast): 3.43 µM; GI50 (MDA-MB-231 breast): 3.63 µM; TGI (MDA-MB-231 breast): 14.8 µM; GI50 (IGROV1 ovarian): 12.3 µM; TGI (IGROV1 ovarian): 25.4 µM; GI50 (A549 NSCLC): 6.24 µM; TGI (A549 NSCLC): 11.7 µM; GI50 (OVCAR-5 ovarian): 16.6 µM; TGI (OVCAR-5 ovarian): 30.7 µM; GI50 (HS 578T breast): 8.01 µM; TGI (HS 578T breast): 20.9 µM; GI50 (SNB-75 CNS): 5.67 µM; GI50 (U251 glioblastoma): > 31.6 µM; TGI (U251 glioblastoma): > 31.6 µM; GI50 (OVCAR-4 ovarian): 4.99 µM; TGI (OVCAR-4 ovarian): 14.9 µM; GI50 (SR leukemia): 5.32 µM; TGI (SR leukemia): 13.4 µM; GI50 (NCI-H522 lung): 1.9 µM; TGI (NCI-H522 lung): 3.79 µM; GI50 (NCI/ADR-RES ovarian): 5.04 µM; TGI (NCI/ADR-RES ovarian): 18 µM; GI50 (HCT-15 colon): 7.15 µM; TGI (HCT-15 colon): 13.3 µM; GI50 (SF-539 CNS): 11.2 µM; TGI (SF-539 CNS): 18.1 µM; GI50 (M14 melanoma): 16 µM; TGI (M14 melanoma): 30.4 µM; GI50 (KM12 colon): 12 µM; TGI (KM12 colon): 16.6 µM; GI50 (NCI-H23 lung): 7.39 µM; TGI (NCI-H23 lung): 13.5 µM; GI50 (HT29 colon): 3.55 µM; TGI (HT29 colon): 5.04 µM; GI50 (SNB-19 CNS): 15 µM; TGI (SNB-19 CNS): 28.4 µM; GI50 (NCI-H226 lung): 6.16 µM; TGI (NCI-H226 lung): 12.8 µM; GI50 (HL-60(TB) leukemia): 6.8 µM; TGI (HL-60(TB) leukemia): 12.7 µM; GI50 (CAKI-1 renal): 14.7 µM; TGI (CAKI-1 renal): 28 µM; GI50 (UO-31 renal): > 40.2 µM; TGI (UO-31 renal): > 54.6 µM; GI50 (RXF 393 renal): 4.85 µM; TGI (RXF 393 renal): 8.09 µM; GI50 (PC-3 prostate): 12.4 µM; TGI (PC-3 prostate): 25 µM; GI50 (MDA-MB-468 breast): 5.63 µM; TGI (MDA-MB-468 breast): 11.3 µM; GI50 (NCI-H322M lung): 13.3 µM; TGI (NCI-H322M lung): 26.3 µM; GI50 (MCF7 breast): 7.5 µM; TGI (MCF7 breast): 13.7 µM; GI50 (MDA-MB-435 melanoma): 17.6 µM; TGI (MDA-MB-435 melanoma): 32.7 µM; GI50 (NCI-H460 NSCLC): 9.46 µM; TGI (NCI-H460 NSCLC): 14.5 µM; GI50 (MALME-3M melanoma): 7.69 µM; TGI (MALME-3M melanoma): 19.6 µM; GI50 (HOP-92 NSCLC): 5.92 µM; TGI (HOP-92 NSCLC): 14 µM; GI50 (MOLT-4 leukemia): 4.21 µM; TGI (MOLT-4 leukemia): 15.4 µM; GI50 (SF-295 CNS): 8.16 µM; GI50 (HOP-62 NSCLC): 2.23 µM; TGI (HOP-62 NSCLC): 4.12 µM; GI50 (RPMI-8226 leukemia): 6.67 µM; TGI (RPMI-8226 leukemia): 12.7 µM; GI50 (BT-549 breast): 8.61 µM; TGI (BT-549 breast): 22.1 µM; GI50 (A498 renal): 7 µM; TGI (A498 renal): 12.7 µM; GI50 (DU-145 prostate): 8.5 µM; TGI (DU-145 prostate): 20.9 µM; GI50 (ACHN renal): 11.4 µM; TGI (ACHN renal): 24.8 µM; GI50 (HCT-116 colon): 6.16 µM; TGI (HCT-116 colon): 17.8 µM; GI50 (UACC-62 melanoma): 13 µM; TGI (UACC-62 melanoma): 17.5 µM; GI50 (SK-MEL-5 melanoma): 7.06 µM; TGI (SK-MEL-5 melanoma): 13.1 µM; GI50 (EKVX NSCLC): 5.38 µM; TGI (EKVX NSCLC): 12.6 µM; GI50 (SN12C renal): 13.7 µM; TGI (SN12C renal): 26.8 µM; GI50 (SK-MEL-28 melanoma): 12.3 µM; TGI (SK-MEL-28 melanoma): 17.8 µM; GI50 (LOX IMVI melanoma): 7.94 µM; TGI (LOX IMVI melanoma): 13.8 µM; GI50 (OVCAR-8 ovarian): 10.6 µM; TGI (OVCAR-8 ovarian): 15.3 µM; GI50 (SK-OV-3 ovarian): 3.89 µM; TGI (SK-OV-3 ovarian): 5.34 µM; GI50 (HCC-2998 colon): 11.9 µM; TGI (HCC-2998 colon): 16.5 µM
